# Measured values as given in ChEMBL document CHEMBL1681651, “A broad spectrum anticancer nucleoside with selective toxicity against human colon cells in vitro” (2011).
# How the values were obtained:
# Format in all cases: functional
# EKVX [1] = experiment: Growth inhibition of human EKVX cells assessed as cell growth at 10 uM after 48 hrs by SRB assay; details: read-out: Activity
# NCI-H460 [2] = experiment: Growth inhibition of human NCI-H460 cells assessed as cell growth at 10 uM after 48 hrs by SRB assay; details: NCI-H460, 48 h, read-out: Activity
# COLO 205 = experiment: Growth inhibition of human COLO205 cells assessed as cell growth at 10 uM after 48 hrs by SRB assay; details: COLO 205, 48 h, read-out: Activity
# SF-539 = experiment: Growth inhibition of human SF539 cells assessed as cell growth at 10 uM after 48 hrs by SRB assay; details: SF-539, 48 h, read-out: Activity
# HCC 2998 [3] = experiment: Growth inhibition of human HCC2998 cells after 48 hrs by […] growth inhibition assay; details: HCC 2998, 48 h
# HCT-15 = experiment: Growth inhibition of human HCT15 cells after 48 hrs by […] growth inhibition assay; details: HCT-15, 48 h
# 786-0 = experiment: Growth inhibition of human 786-0 cells after 48 hrs by […] growth inhibition assay; details: 786-0, 48 h
# UO-31 [4] = experiment: Growth inhibition of human UO31 cells after 48 hrs by […] growth inhibition assay; details: UO-31, 48 h
# T47D = experiment: Growth inhibition of human T47D cells after 48 hrs by […] growth inhibition assay
# A549 [5] = experiment: Growth inhibition of human A549 cells assessed as cell growth at 0.1 uM after 48 hrs by SRB assay; details: A549, 48 h, read-out: Activity
# HOP-62 = experiment: Growth inhibition of human HOP62 cells assessed as cell growth at 0.1 uM after 48 hrs by SRB assay; details: HOP-62, 48 h, read-out: Activity
# NCI-H322M = experiment: Growth inhibition of human NCI-H322M cells assessed as cell growth at 0.1 uM after 48 hrs by SRB assay; details: read-out: Activity
# HCC 2998 [6] = experiment: Growth inhibition of human HCC2998 cells assessed as cell growth at 0.1 uM after 48 hrs by SRB assay; details: HCC 2998, 48 h, read-out: Activity
# IGROV-1 [7] = experiment: Growth inhibition of human IGROV1 cells assessed as cell growth at 0.1 uM after 48 hrs by SRB assay; details: IGROV-1, 48 h, read-out: Activity
# MCF7 [8] = experiment: Growth inhibition of human MCF7 cells assessed as cell growth at 0.1 uM after 48 hrs by SRB assay; details: MCF7, 48 h, read-out: Activity
# MDA-MB-231 [9] = experiment: Growth inhibition of human MDA-MB-231 cells assessed as cell growth at 0.1 uM after 48 hrs by SRB assay; details: MDA-MB-231, 48 h, read-out: Activity
# IGROV-1 [10] = experiment: Growth inhibition of human IGROV1 cells assessed as cell growth at 10 uM after 48 hrs by SRB assay; details: IGROV-1, 48 h, read-out: Activity
# OVCAR-4 [11] = experiment: Growth inhibition of human OVCAR4 cells assessed as cell growth at 10 uM after 48 hrs by SRB assay; details: OVCAR-4, 48 h, read-out: Activity
# ACHN = experiment: Growth inhibition of human ACHN cells assessed as cell growth at 10 uM after 48 hrs by SRB assay; details: read-out: Activity
# CAKI-1 = experiment: Growth inhibition of human Caki1 cells assessed as cell growth at 10 uM after 48 hrs by SRB assay; details: CAKI-1, 48 h, read-out: Activity
# UO-31 [12] = experiment: Growth inhibition of human UO31 cells assessed as cell growth at 10 uM after 48 hrs by SRB assay; details: UO-31, 48 h, read-out: Activity
# DU-145 [13] = experiment: Growth inhibition of human DU145 cells assessed as cell growth at 10 uM after 48 hrs by SRB assay; details: DU-145, 48 h, read-out: Activity
# MCF7 [14] = experiment: Growth inhibition of human MCF7 cells assessed as cell growth at 10 uM after 48 hrs by SRB assay; details: MCF7, 48 h, read-out: Activity
# MDA-MB-231 [15] = experiment: Growth inhibition of human MDA-MB-231 cells assessed as cell growth at 10 uM after 48 hrs by SRB assay; details: MDA-MB-231, 48 h, read-out: Activity
# CCRF-CEM = experiment: Growth inhibition of human CCRF-CEM cells assessed as cell growth at 100 uM after 48 hrs by SRB assay; details: read-out: Activity
# OVCAR-3 = experiment: Growth inhibition of human OVCAR3 cells assessed as cell growth at 100 uM after 48 hrs by SRB assay; details: OVCAR-3, 48 h, read-out: Activity
# A498 = experiment: Growth inhibition of human A498 cells assessed as cell growth at 100 uM after 48 hrs by SRB assay; details: A498, 48 h, read-out: Activity
# DU-145 [16] = experiment: Growth inhibition of human DU145 cells assessed as cell growth at 100 uM after 48 hrs by SRB assay; details: DU-145, 48 h, read-out: Activity
# MCF7 [17] = experiment: Growth inhibition of human MCF7 cells assessed as cell growth at 100 uM after 48 hrs by SRB assay; details: MCF7, 48 h, read-out: Activity
# A549 [18] = experiment: Growth inhibition of human A549 cells assessed as cell growth at 1 mM after 48 hrs by SRB assay; details: A549, 48 h, read-out: Activity
# EKVX [19] = experiment: Growth inhibition of human EKVX cells assessed as cell growth at 1 mM after 48 hrs by SRB assay; details: read-out: Activity
# SK-OV-3 = experiment: Growth inhibition of human SKOV3 cells assessed as cell growth at 1 mM after 48 hrs by SRB assay; details: SK-OV-3, 48 h, read-out: Activity
# MDA-MB-231 [20] = experiment: Growth inhibition of human MDA-MB-231 cells assessed as cell growth at 1 mM after 48 hrs by SRB assay; details: MDA-MB-231, 48 h, read-out: Activity
# NCI-H460 [21] = experiment: Growth inhibition of human NCI-H460 cells assessed as cell growth at 1 uM after 48 hrs by SRB assay; details: NCI-H460, 48 h, read-out: Activity
# NCI-H522 = experiment: Growth inhibition of human NCI-H522 cells assessed as cell growth at 1 uM after 48 hrs by SRB assay; details: NCI-H522, 48 h, read-out: Activity
# OVCAR-4 [22] = experiment: Growth inhibition of human OVCAR4 cells assessed as cell growth at 1 uM after 48 hrs by SRB assay; details: OVCAR-4, 48 h, read-out: Activity
# [23] = read-out: LC50 (the source's name)
# [24] = read-out: pLC50 (the source's name) (converted)
smiles,measurement,setting,value
CNC(=O)NC[C@H]1O[C@@H](n2cnc3c(NC(=O)Nc4ccccc4)ncnc32)[C@H](O[Si](C)(C)C(C)(C)C)[C@@H]1CC(=O)N(C)OC,growth at 10 µM,EKVX [1],95%
same,growth at 10 µM,NCI-H460 [2],90%
same,growth at 10 µM,COLO 205,90%
same,growth at 10 µM,SF-539,89%
same,GI50,HCC 2998 [3]; read-out: GI50,30.6 µM
same,CC50,HCC 2998 [3]; [23],> 100 µM
same,TGI,HCC 2998 [3]; read-out: TGI,> 100 µM
same,GI50,HCC 2998 [3]; read-out: pGI50 (converted),30.9 µM
same,CC50,HCC 2998 [3]; [24],> 100 µM
same,TGI,HCC 2998 [3]; read-out: pTGI (converted),> 100 µM
same,GI50,HCT-15; read-out: GI50,6.47 µM
same,CC50,HCT-15; [23],> 100 µM
same,TGI,HCT-15; read-out: TGI,> 100 µM
same,GI50,HCT-15; read-out: pGI50 (converted),6.46 µM
same,CC50,HCT-15; [24],> 100 µM
same,TGI,HCT-15; read-out: pTGI,> 100 µM
same,GI50,786-0; read-out: GI50,9.01 µM
same,CC50,786-0; [23],> 100 µM
same,TGI,786-0; read-out: TGI,> 100 µM
same,GI50,786-0; read-out: pGI50 (converted),8.91 µM
same,CC50,786-0; [24],> 100 µM
same,TGI,786-0; read-out: pTGI (converted),> 100 µM
same,GI50,UO-31 [4]; read-out: GI50,7.79 µM
same,CC50,UO-31 [4]; [23],> 100 µM
same,TGI,UO-31 [4]; read-out: TGI,> 100 µM
same,GI50,UO-31 [4]; read-out: pGI50 (converted),7.76 µM
same,CC50,UO-31 [4]; [24],> 100 µM
same,TGI,UO-31 [4]; read-out: pTGI (converted),> 100 µM
same,GI50,T47D; read-out: GI50,13.9 µM
same,CC50,T47D; [23],> 100 µM
same,TGI,T47D; read-out: TGI,> 100 µM
same,GI50,T47D; read-out: pGI50 (converted),13.8 µM
same,CC50,T47D; [24],> 100 µM
same,TGI,T47D; read-out: pTGI (converted),> 100 µM
same,growth at 0.1 µM,A549 [5],97%
same,growth at 0.1 µM,HOP-62,92%
same,growth at 0.1 µM,NCI-H322M,97%
same,growth at 0.1 µM,HCC 2998 [6],102%
same,growth at 0.1 µM,IGROV-1 [7],89%
same,growth at 0.1 µM,MCF7 [8],91%
same,growth at 0.1 µM,MDA-MB-231 [9],97%
same,growth at 10 µM,IGROV-1 [10],82%
same,growth at 10 µM,OVCAR-4 [11],96%
same,growth at 10 µM,ACHN,95%
same,growth at 10 µM,CAKI-1,76%
same,growth at 10 µM,UO-31 [12],82%
same,growth at 10 µM,DU-145 [13],104%
same,growth at 10 µM,MCF7 [14],96%
same,growth at 10 µM,MDA-MB-231 [15],94%
same,growth at 100 µM,CCRF-CEM,39%
same,growth at 100 µM,OVCAR-3,41%
same,growth at 100 µM,A498,24%
same,growth at 100 µM,DU-145 [16],60%
same,growth at 100 µM,MCF7 [17],34%
same,growth at 1000 µM,A549 [18],27%
same,growth at 1000 µM,EKVX [19],36%
same,growth at 1000 µM,SK-OV-3,38%
same,growth at 1000 µM,MDA-MB-231 [20],5%
same,growth at 1 µM,NCI-H460 [21],93%
same,growth at 1 µM,NCI-H522,87%
same,growth at 1 µM,OVCAR-4 [22],100%
